Patent publication EP2064211B1, “IMIDAZO[1,2-A]PYRIDINE HYDROXYMATE COMPOUNDS THAT ARE INHIBITORS OF HISTONE DEACETYLASE” (MEI Pharma, Inc., priority 2006, dated 2008)
Where two headings read alike, the source gives them in different places.

Assays:
HDAC1 enzyme = target: T1, HDAC1 enzyme (Homo sapiens, UniProt Q13547); experiment: In vitro HDAC assay for determination of IC50 values (BIOMOL fluorescent-based HDAC activity assay); assay type: biochemical; conditions: recombinant GST-HDAC1, 500 uM Flur de lys substrate, room temperature 2 h; read-out: IC50 (HDAC 1)
T1 construct: Amplification of human HDAC1 coding region from this cDNA library was cloned separately into the baculovirus expression pDEST20 vector; made in house; host or cells: SF9 insect cells (baculovirus, pDEST20 vector)
Experimental: Human cDNA library was prepared using cultured SW620 cells. Amplification of human HDAC1 coding region from this cDNA library was cloned separately into the baculovirus expression pDEST20 vector (GATEWAY Cloning Technology, Invitrogen Pte Ltd). The pDEST20-HDAC1 construct was confirmed by DNA sequencing. Recombinant baculovirus was prepared using the Bac-To-Bac method following the manufacturer's instruction (Invitrogen Pte Ltd).
Expression of GST-HDAC1 was done by infecting SF9 cells (Invitrogen Pte Ltd) with pDEST20-HDAC1 baculovirus at MOI=1 for 48 h. Soluble cell lysate was incubated with pre-equilibrated Glutathione Sepharose 4B beads (Amersham) at 4°C for 2 h. The beads were washed with PBS buffer for 3 times. The GST-HDAC1 protein was eluted by elution buffer containing 50 mM Tris, pH8.0, 150mM NaCl, 1% Triton X-100 and 10mM or 20mM reduced Glutathione. The purified GST-HDAC1 protein was dialyzed with HDAC storage buffer containing 10mM Tris, pH7.5, 100mM NaCl and 3mM MgCl2. 20% Glycerol was added to purified GST-HDAC1 protein before storage at -80°C.
The assay has been carried out in 96 well format and the BIOMOL fluorescent-based HDAC activity assay has been applied. The reaction composed of assay buffer, containing 25 mM Tris pH 7.5, 137 mM NaCl, 2.7 mM KCl, 1 mM MgCl2, 1 mg/ml BSA, tested compounds, an appropriate concentration of HDAC1 enzyme, 500 uM Flur de lys generic substrate for HDAC1 enzyme and subsequently was incubated at room temperature for 2 h. Flur de lys Developer was added and the reaction was incubated for 10 min. Briefly, deacetylation of the substrate sensitizes it to the developer, which then generates a fluorophore. The fluorophore is excited with 360 nm light and the emitted light (460 nm) is detected on a fluorometric plate reader (Tecan Ultra Microplate detection system, Tecan Group Ltd.).
The analytical software, Prism 4.0 (GraphPad Software Inc) has been used to generate IC50 from a series of data. IC50 is defined as the concentration of compound required for 50% inhibition of HDAC enzyme activity.

Colo205 cells = experiment: Cell-based proliferation assay for determination of GI50 values (CyQUANT); parameters: species or system Human; conditions: concentration for 50% inhibition of cell growth, read-out: Gl50 (Colo205)
Experimental: Human cancer cell lines (e.g. Colo205) were obtained from ATCC. Colo205 cells were cultivated in RPMI 1640 containing 2 mM L-Glutamine, 5% FBS, 1.0 mM Na Pyruvate. Colo205 cells were seeded in 96-wells plate at 5000 cells per well. The plates were incubated at 37°C, 5% CO2, for 24 h. Cells were treated with compounds at various concentrations for 96 h. Cell growth was then monitored using CyQUANT® cell proliferation assay (Invitrogen Pte Ltd). Dose response curves were plotted to determine Gl50 values for the compounds using XL-fit (ID Business Solution, Emeryville, CA). Gl50 is defined as the concentration of compound required for 50% inhibition of cell growth.

[1] = Homo sapiens, COLO 205, compound treatment 96 h

T1 sequence (Q13547 whole entry): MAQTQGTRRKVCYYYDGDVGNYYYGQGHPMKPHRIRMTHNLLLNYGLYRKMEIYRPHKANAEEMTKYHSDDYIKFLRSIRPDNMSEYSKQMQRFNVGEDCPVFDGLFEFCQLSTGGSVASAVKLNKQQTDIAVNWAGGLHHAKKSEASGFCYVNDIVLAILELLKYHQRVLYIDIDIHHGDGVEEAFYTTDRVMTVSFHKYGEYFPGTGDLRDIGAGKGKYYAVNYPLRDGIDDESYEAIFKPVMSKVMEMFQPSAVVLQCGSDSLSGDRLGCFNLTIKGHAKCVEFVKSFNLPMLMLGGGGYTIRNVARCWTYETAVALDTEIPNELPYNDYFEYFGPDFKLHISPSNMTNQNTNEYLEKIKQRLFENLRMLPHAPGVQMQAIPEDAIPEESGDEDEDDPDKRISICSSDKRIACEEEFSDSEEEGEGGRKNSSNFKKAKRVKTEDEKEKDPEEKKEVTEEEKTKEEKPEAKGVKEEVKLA

Compound	IC50 (HDAC1 enzyme)	IC50 (Colo205 cells; [1])	IC50 (Colo205 cells; compound treatment 96 h)
CCN(Cc1c(C(C)(C)C)nc2cc(C=CC(=O)NO)ccn12)CC1CC1 [Compound 27, 3-{2-tert-Butyl-3-[(cyclopropylmethyl-ethyl-amino)-methyl]-imidazo[1,2-a]pyridin-7-yl}-N-hydroxy-acrylamide]	330 nM	2100 nM	–
CCCN(Cc1c(C)nc2cc(C=CC(=O)NO)ccn12)CC(C)(C)C [Compound 38, 3-(3-{[(2,2-Dimethyl-propyl)-propyl-amino]-methyl}-2-methyl-imidazo[1,2-a]pyridin-7-yl)-N-hydroxy-acrylamide]	130 nM	700 nM	–
CCCCN(CC)Cc1c(CCC(C)C)nc2cc(C=CC(=O)NO)ccn12 [Compound 66, 3-[3-[(Butyl-ethyl-amino)-methyl]-2-(3-methyl-butyl)-imidazo[1,2-a]pyridin-7-yl]-N-hydroxy-acrylamide]	40 nM	160 nM	–
CCN(CCC(C)C)Cc1c(CCC(C)C)nc2cc(/C=C/C(=O)NO)ccn12 [Compound 67, 3-[3-{[Ethyl-(3-methyl-butyl)-amino]-methy}-2-(3-methyl-butyl)-imidazo[1,2-a]pyridin-7-yl]-N-hydroxy-acrylamide]	30 nM	130 nM	–
CCCN(Cc1c(C(C)(C)C)nc2cc(C=CC(=O)NO)ccn12)C(C)C [Compound 32, 3-{2-tert-Butyl-3-[(isopropyl-propyl-amino)-methyl]-imidazo[1,2-a]pyridin-7-yl}-N-hydroxy-acrylamide]	300 nM	2500 nM	–
CN(Cc1c(C(C)(C)C)nc2cc(/C=C/C(=O)NO)ccn12)CC(C)(C)C [Compound 33, 3-(-tert-Butyl-3-{[(2,2-dimethyl-propyl)-methyl-amino]-methyl}-imidazo[1,2-a]pyridin-7-yl)-N-hydroxy-acrylamide]	780 nM	6300 nM	–
CCCCN(CCCC)Cc1c(C)nc2cc(/C=C/C(=O)NO)ccn12 [Compound 12, 3-(3-Dibutylaminomethyl-2-methyl-imidazo[1,2-a]pyridin-7-yl)-N-hyroxy-acrylamide]	80 nM	800 nM	–
CN(CCC(C)(C)C)Cc1c(C(C)(C)C)nc2cc(C=CC(=O)NO)ccn12 [Compound 37, 3-(2-tert-Butyl-3-{[(3,3-dimethyl-butyl)-methyl-amino]-methyl}-imidazo[1,2-a]pyridin 7-yl)-N-hydroxy-acrylamide]	270 nM	730 nM	–
CCN(CCC(C)C)Cc1c(C(C)(C)C)nc2cc(C=CC(=O)NO)ccn12 [Compound 20, 3-(2-tert-Butyl-3-{[ethyl-(3-methyl-butyl)-amino]-methyl}-imidazo[1,2-a]pyridin-7-yl)-N-hydroxy-acrylamide]	60 nM	350 nM	–
CCN(CCC(C)(C)C)Cc1c(C(C)(C)C)nc2cc(C=CC(=O)NO)ccn12 [Compound 23, 3-(2-tert-Butyl-3-{[(3,3-dimethyl-butyl)-ethyl-amino]-methyl}-imidazo[1,2-a]pyridin-7-yl)-N-hydroxy-acrylamide]	70 nM	480 nM	–
CCCC(C)CN(CC)Cc1c(C(C)(C)C)nc2cc(C=CC(=O)NO)ccn12 (stereo not drawn) [Compound 22, 3-(2-tert-Butyl-3-{[ethyl-(2-methyl-pentyl)-amino]-methyl}-imidazo[1,2-a]pyridin-7-yl)-N-hydroxy-acrylamide]	470 nM	2100 nM	–
CCCCc1nc2cc(C=CC(=O)NO)ccn2c1CN(CC)CC(C)C [Compound 40, 3-(2-Butyl-3-[(ethyl-isobutyl-amino)-methyl]-imidazo[1,2-a]pyridin-7-yl}-N-hydroxy-acrylamide]	90 nM	570 nM	–
CCCCc1nc2cc(C=CC(=O)NO)ccn2c1CN(CC)CCC(C)C [Compound 42, 3-(2-Butyl-3-{[ethyl-(3-methyl-butyl)-amino]-methyl}-imidazo[1,2-a]pyridin-7-yl)-N-hydroxy-acrylamide]	20 nM	90 nM	–
CCc1nc2cc(C=CC(=O)NO)ccn2c1CNC(C)(C)C [Compound 62, 3-[3-(tert-Butylamino-methyl)-2-ethyl-imidazo[1,2-a]pyridin-7-yl]-N-hydroxy-acrylamide]	30 nM	260 nM	–
CCN(CCCSC)Cc1c(C(C)(C)C)nc2cc(C=CC(=O)NO)ccn12 [Compound 26, 3-(2-tert-Butyl-3-{[ethyl-(3-methylsulfanyl-propyl)-amino]-methyl}-imidazo[1,2-a]pyridin-7-yl)-N-hydroxy-acrylamide]	90 nM	600 nM	–
CCC(CC)CN(CC)Cc1c(C(C)(C)C)nc2cc(C=CC(=O)NO)ccn12 [Compound 24, 3-(2-tert-Butyl-3-{[ethyl-(2-ethyl-butyl)-amino]-methyl}-imidazo[1,2-a]pyridin-7-yl)-N-hydroxy-acrylamide]	190 nM	970 nM	–
CCCCc1nc2cc(C=CC(=O)NO)ccn2c1CN(CC)CC [Compound 7, 3-(2-Butyl-3-diethylaminomethyl-imidazo[1,2-a]pyridin-7-yl)-N-hydroxy-acrylamide]	180 nM	680 nM	–
CCCCN(CC)Cc1c(CC(C)C)nc2cc(C=CC(=O)NO)ccn12 [Compound 59, 3-{3-[(Butyl-ethyl-amino)-methyl]-2-isobutyl-imidazo[1,2-a]pyridin-7-yl}-N-hydroxy-acrylamide]	40 nM	150 nM	–
CCCCc1nc2cc(C=CC(=O)NO)ccn2c1CN(CC)CCCC [Compound 9, 3-{2-Butyl-3-[(butyl-ethyl-amino)-methyl]-imidazo[1,2-a]pyridin-7-yl}-N-hydroxy-acrylamide]	60 nM	160 nM	–
CCCCc1nc2cc(C=CC(=O)NO)ccn2c1CN(CC)CC(C)(C)C [Compound 43, 3-(2-Butyl-3-{[(2,2-dimethyl-propyl)-ethyl-amino]-methyl}-imidazo[1,2-a]pyridin-7-yl)-N-hydroxy-acrylamide]	160 nM	950 nM	–
CCCCNCc1c(CCCC)nc2cc(C=CC(=O)NO)ccn12 [Compound 4, 3-(2-Butyl-3-butylaminomethyl-imidazo[1,2-a]pyridin-7-yl)-N-hydroxy-acrylamide]	20 nM	180 nM	–
CCCCCc1nc2cc(C=CC(=O)NO)ccn2c1CN(CC)CCC(C)(C)C [Compound 56, 3-(3-{[(3,3-Dimethyl-butyl)-ethyl-amino]-methyl}-2-pentyl-imidazo[1,2-a]pyridin-7-yl)-N-hydroxy-acrylamide]	30 nM	150 nM	–
CCCCCc1nc2cc(C=CC(=O)NO)ccn2c1CN(CC)CCCC [Compound 54, 3-{3-[(Butyl-ethyl-amino)-methyl]-2-pentyl-imidazo[1,2-a]pyridin-7-yl}-N-hydroxy-acrylamide]	40 nM	150 nM	–
CCC(CC)NCc1c(C(C)(C)C)nc2cc(C=CC(=O)NO)ccn12 [Compound 2, 3-{2-tert-Butyl-3-[(1-ethyl-propylamino)-methyl]-imidazo[1,2-a]pyridin-7-yl}-N-hydroxy-acrylamide]	160 nM	1500 nM	–
3-(2-Butyl-3-{(ethyl-(2-methyl-pentyl)-amino]-methyl}-imidazo[1,2-a]pyridin-7-yl)-N-hydroxy-acrylamide [Compound 41]	–	–	370 nM
CCN(CCC(C)C)Cc1c(CC(C)C)nc2cc(C=CC(=O)NO)ccn12 [Compound 60, 3-(3-{[Ethyl-(3-methyl-butyl)-amino]-methyl}-2-isobutyl-imidazo[1,2-a]pyridin-7-yl)-N-hydroxy-acrylamide]	–	150 nM	–
CCC(C)CN(CC)Cc1c(C(C)(C)C)nc2cc(C=CC(=O)NO)ccn12 (stereo not drawn) [Compound 19, 3-(2-tert-Butyl-3-{[ethyl-(2-methyl-butyl)-amino]-methyl}-imidazo[1,2-a]pyridin-7-yl)-N-hydroxy-acrylamide]	–	2200 nM	–
